The record followed here is US6369225B1, “Compounds having activity as inhibitors of cytochrome P450RAI” (Allergan Sales, Inc., priority 2000, dated 2002).

Structures are written as SMILES.

The target of assay [1] is T1, RARγ (Homo sapiens, UniProt P13631).
T1 sequence (P13631 1-454): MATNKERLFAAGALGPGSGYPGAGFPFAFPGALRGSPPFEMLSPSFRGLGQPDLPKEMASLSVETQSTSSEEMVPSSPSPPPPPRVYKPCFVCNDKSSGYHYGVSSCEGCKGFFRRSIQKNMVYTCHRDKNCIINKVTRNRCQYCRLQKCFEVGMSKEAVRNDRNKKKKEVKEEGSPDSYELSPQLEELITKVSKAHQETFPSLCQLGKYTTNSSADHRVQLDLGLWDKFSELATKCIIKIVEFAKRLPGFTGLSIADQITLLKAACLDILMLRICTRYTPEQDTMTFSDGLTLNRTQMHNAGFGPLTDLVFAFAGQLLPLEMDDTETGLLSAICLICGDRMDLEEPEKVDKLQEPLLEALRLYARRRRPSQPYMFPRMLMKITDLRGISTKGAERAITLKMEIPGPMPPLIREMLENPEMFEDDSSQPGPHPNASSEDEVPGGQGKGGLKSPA
As to the kind of experiment: ligand binding assay, RARγ. Conditions: Kd line of EC50/(EFFICACY)/Kd, read-out: RAR Kd γ. An excerpt:
(§1) Assays described below measure the ability of a compound to bind to, and/or activate various retinoid receptor subtypes. When in these assays a compound binds to a given receptor subtype and activates the transcription of a reporter gene through that subtype, then the compound is considered an agonist of that receptor subtype. […] In the below described assays the ability of the compounds to bind to RARα, RARβ, RARγ, RXRα, RXRβ and RXRγ receptors, and the ability or inability of the compounds to activate transcription of a reporter gene through these receptor subtypes can be tested.
(§2) A holoreceptor transactivation assay and a ligand binding assay which measure the antagonist/agonist like activity of the compounds of the invention, or their ability to bind to the several retinoid receptor subtypes, respectively, are described in published PCT Application No. WO WO93/11755 (particularly on pages 30-33 and 37-41) published on Jun. 24, 1993, the specification of which is also incorporated herein by reference. A detailed experimental procedure for holoreceptor transactivations has been described by Heyman et al. Cell 68, 397-406, (1992); Allegretto et al. J. Biol. Chem. 268, 26625-26633, and Mangelsdorf et al. The Retinoids: Biology, Chemistry and Medicine, pp 319-349, Raven Press Ltd., New York, which are expressly incorporated herein by reference. The results obtained in this assay are expressed in EC50 numbers, as they are also in the chimeric receptor transactivation assay. The results of ligand binding assay are expressed in Kd numbers. (See Cheng et al. Biochemical Pharmacology Vol. 22 pp 3099-3108, expressly incorporated herein by reference.)
(§3) The results if the ligand binding assay for several preferred compounds of the invention are included in Table 1.

Assay [2] addresses T2, P450RAI-1 (Homo sapiens, UniProt O43174).
T2 construct: expressed in transfected cells; host or cells: HeLa cells, stably transfected, hygromycin selection
T2 sequence (O43174 1-497): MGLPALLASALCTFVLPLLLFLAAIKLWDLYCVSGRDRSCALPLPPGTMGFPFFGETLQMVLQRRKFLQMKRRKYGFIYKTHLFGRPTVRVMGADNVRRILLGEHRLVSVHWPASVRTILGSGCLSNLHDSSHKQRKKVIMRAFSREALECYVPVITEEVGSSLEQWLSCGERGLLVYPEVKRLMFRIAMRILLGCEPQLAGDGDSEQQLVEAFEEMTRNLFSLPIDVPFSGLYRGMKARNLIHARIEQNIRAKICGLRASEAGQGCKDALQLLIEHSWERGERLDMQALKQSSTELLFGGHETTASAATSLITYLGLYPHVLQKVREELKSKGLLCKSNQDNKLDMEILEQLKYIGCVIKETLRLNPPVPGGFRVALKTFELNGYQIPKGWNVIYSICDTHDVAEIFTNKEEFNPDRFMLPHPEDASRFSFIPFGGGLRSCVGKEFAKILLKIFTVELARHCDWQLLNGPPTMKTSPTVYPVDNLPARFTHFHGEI
As to the kind of experiment: P450RAI-1 cell-based inhibitor assay. Conditions: P450RAI-1 stably transfected HeLa cells, [3H]-RA metabolism, 3 hours at 37° C.; read-out: P450RAI INHIBITION DATA INTACT HELA IC50. The protocol: P450RAI-1 stably transfected HeLa cells are maintained in […] tissue culture dishes in Modified Eagle's Medium (MEM) containing 10% Fetal Bovine Serum (FBS) and 100 μg/ml hygromycin. Exponentially growing cells are harvested by incubating in trypsin. Cells are then washed with 1× Phosphate Buffered Saline (PBS) and plated in a 48-well plate at 5×10^5 cells in 0.2 ml MEM medium containing 10% FBS and 0.05 μCi[^3H]-RA in the presence or absence of increasing concentrations of the test compounds. The compounds are diluted in 100% DMSO and then added in triplicate wells at either 10, 1 or 0.1 μM final concentration. As a positive control for RA metabolism inhibition, cells are also incubated with ketoconazole at 100, 10 and 1 μM. Cell are incubated for 3 hours at 37° C. […] The water soluble radioactivity is quantified using a β-scintillation counter. IC50 values represent the concentration of inhibitor required to inhibit all-trans-RA metabolism by 50 percent and are derived manually from log-transformed data.

In assay [3] the target is T3, RARα (Homo sapiens, UniProt P10276).
T3 sequence (P10276 1-462): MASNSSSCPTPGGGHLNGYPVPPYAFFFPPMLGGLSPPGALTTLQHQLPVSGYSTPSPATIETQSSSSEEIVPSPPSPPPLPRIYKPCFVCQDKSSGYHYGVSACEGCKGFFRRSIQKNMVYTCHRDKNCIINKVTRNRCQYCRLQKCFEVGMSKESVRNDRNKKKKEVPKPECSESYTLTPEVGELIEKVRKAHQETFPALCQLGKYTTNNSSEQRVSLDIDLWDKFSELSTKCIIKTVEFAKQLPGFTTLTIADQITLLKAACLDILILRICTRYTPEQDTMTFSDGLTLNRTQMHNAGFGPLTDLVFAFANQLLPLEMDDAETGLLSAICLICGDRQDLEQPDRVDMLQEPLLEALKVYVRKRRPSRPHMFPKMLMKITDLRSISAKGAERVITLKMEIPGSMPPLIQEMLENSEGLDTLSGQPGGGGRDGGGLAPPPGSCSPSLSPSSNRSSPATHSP
Kind of assay: ligand binding assay, RARα. The conditions noted are these: Kd line of EC50/(EFFICACY)/Kd, read-out: RAR Kd α.
Source text: as §1, §2, §3

For assay [4], the target named is T4, RARβ (Homo sapiens, UniProt P10826).
T4 sequence (P10826 1-455): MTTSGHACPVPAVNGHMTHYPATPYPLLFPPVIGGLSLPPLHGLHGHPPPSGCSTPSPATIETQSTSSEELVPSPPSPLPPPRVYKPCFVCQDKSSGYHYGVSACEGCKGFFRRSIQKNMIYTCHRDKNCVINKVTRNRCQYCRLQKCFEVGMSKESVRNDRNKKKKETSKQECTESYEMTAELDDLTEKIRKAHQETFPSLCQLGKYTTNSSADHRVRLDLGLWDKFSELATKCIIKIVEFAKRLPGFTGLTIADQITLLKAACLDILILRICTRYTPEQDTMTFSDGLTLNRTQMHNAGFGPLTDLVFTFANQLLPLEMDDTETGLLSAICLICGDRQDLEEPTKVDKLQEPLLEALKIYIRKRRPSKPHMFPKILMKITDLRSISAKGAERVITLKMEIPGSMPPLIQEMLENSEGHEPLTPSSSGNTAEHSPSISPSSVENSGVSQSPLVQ
As to the kind of experiment: ligand binding assay, RARβ. The conditions noted are these: Kd line of EC50/(EFFICACY)/Kd, read-out: RAR Kd β.
Source text: as §1
as §2, with “A detailed experimental procedure for holoreceptor transactivations has been described by Heyman et al. Cell 68, 397-406, (1992); Allegretto et al. J. Biol. Chem. 268, 26625-26633, and Mangelsdorf et al. The Retinoids: Biology, Chemistry and Medicine, pp 319-349, Raven Press Ltd., New York, which are expressly incorporated herein by reference.” left out

By Kd is commonly meant the concentration at which binding is half-saturated. In general, IC50 refers to the point on the concentration scale where inhibition reaches its midpoint. `CC1(C)CC(C)(C)c2cc(C#Cc3ccc(CC(=O)O)cc3)ccc2O1` [Compound 28, [4-(2,2,4,4-Tetramethyl-chroman-6-yl-ethynyl)phenyl]acetic Acid]: the Kd in assay [1] is greater than 10 µM; in assay [3] it was 21 µM; in assay [4], 4.27 µM. Besides, the IC50 in assay [2] came out at 0.34 µM.
Taken in the same sequence, the figures for `CC1(C)CC(C)(C)c2cc(C#Cc3ccc(C(=O)O)c(F)c3)ccc2O1` [Compound 30, 2-Fluoro-4-(2,2,4,4-tetramethyl-chroman-6-yl-ethynyl)-benzoic Acid] were 0.084 µM, 0.014 µM, 0.0022 µM and 0.28 µM.
On the same counts, the results for `CC1(C)CC(C)(C)c2cc(C#Cc3ccc(CC(=O)O)c(F)c3)ccc2O1` [Compound 32, [2-Fluoro-4-(2,2,4,4-tetramethyl-chroman-6-yl-ethynyl)phenyl]acetic Acid] are 13 µM, 27 µM, 4.22 µM and 0.18 µM.
As to `CC1(C)CC(C)(C)c2cc(C#Cc3ccc(C(=O)O)cc3)cc(C3CC3)c2O1` [Compound 34, 4-(8-Cyclopropyl-2,2,4,4-tetramethyl-chroman-6-yl-ethynyl)-benzoic Acid], the Kd came to 0.0025 µM in assay [1], 0.0615 µM in assay [3] and 0.015 µM in assay [4]. Besides, in assay [2], the IC50 stood at 0.13 µM.
Taken in the same sequence, the figures for `CC1(C)CC2(CC2)Oc2ccc(C#Cc3ccc(CC(=O)O)cc3)cc21` [Compound 42, Benzeneacetic Acid, 4-[(3,4-dihydro-4,4-dimethylspiro[2H-1-benzopyran-2,1′-cyclopropane]-6-yl)ethynyl]-] were greater than 10 µM, 15 µM, 3.64 µM and 0.19 µM.
Taken in the same sequence, the figures for `COC1(c2ccc(C#Cc3ccc(CC(=O)O)cc3)cc2)CC1` [Compound 70, {4-[4-(1-Methoxycyclopropyl)-phenylethynyl]-phenyl}-acetic Acid] were greater than 10 µM, greater than 10 µM, greater than 10 µM and greater than 10 µM.
On the same counts, the results for `CC(C)OC1(c2ccc(C#Cc3ccc(CC(=O)O)cc3)cc2)CC1` [Compound 74, {4-[4-(1-Isopropoxycyclopropyl)-phenylethynyl]-phenyl}-acetic Acid] are greater than 10 µM, 11 µM, 14 µM and 3.5 µM.
On to `O=C(O)c1ccc(C#Cc2ccc(C3(OCc4ccccc4)CC3)cc2)cc1` [Compound 77, 4-[4-(1-Benzyloxycyclopropyl)-phenylethynyl]-benzoic Acid], for which the Kd in assay [1] turned out to be 0.016 µM; in assay [3], 2.21 µM; in assay [4], 0.225 µM. The IC50 in assay [2] was greater than 10 µM.
With `O=C(O)Cc1ccc(C#Cc2ccc(C3(OCc4ccccc4)CC3)cc2)cc1` [Compound 78, {4-[4-(1-Benzyloxycyclopropyl)-phenylethynyl]-phenyl}-acetic Acid], the Kd in assay [1], in assay [3] and in assay [4] was greater than 10 µM each time. Moreover, the IC50 in assay [2] was greater than 10 µM.
On to `Cc1cc(C#Cc2ccc(CC(=O)O)cc2)ccc1C1(OCc2ccccc2)CC1` [Compound 82, {4-[4-(1-Benzyloxycyclopropyl)-3-methyl-phenylethynyl]-phenyl}-acetic Acid], for which the dissociation constant (Kd) in assay [1], in assay [3] and in assay [4] was greater than 10 µM each time. Further, the IC50 in assay [2] is greater than 10 µM.
With `Cc1cc(C#Cc2ccc(CC(=O)O)cc2)ccc1C1(OC(C)C)CC1` [Compound 86, {4-[4-(1-Isopropoxycyclopropyl)-3-methyl-phenylethynyl]-phenyl}-acetic Acid], the Kd in assay [1], in assay [3] and in assay [4] was greater than 10 µM throughout. Besides, the IC50 in assay [2] came to 1.4 µM.
On to `O=C(O)c1ccc(C#Cc2ccc(C3(N(Cc4ccccc4)Cc4ccccc4)CC3)cc2)cc1` [Compound 114, 4-[4-(1-Dibenzylamino-cyclopropyl)-phenylethynyl]-benzoic Acid], for which the dissociation constant Kd in assay [1] and in assay [3] was greater than 10 µM each time. Also, in assay [2], the IC50 is greater than 10 µM.
Consider `Cc1cc(C#Cc2ccc(CC(=O)O)cc2)ccc1Cn1ccnc1` [Compound 121, [4-(4-Imidazol-1-yl-methyl-3-methyl-phenylethynyl)-phenyl]-acetic Acid], for which the results for the Kd in assay [1] and in assay [3] were greater than 100 µM and greater than 10 µM, respectively.
